The values that follow come from ChEMBL document CHEMBL5241069, “A key review on oxadiazole analogs as potential methicillin-resistant Staphylococcus aureus (MRSA) activity: Structure-activity relationship studies” (Eur J Med Chem, 2021).

In brackets after ≈: the same amount, converted by molar mass.

As usually defined, the MBC is the smallest concentration meeting the test's criterion for killing. One may read the IC50 as the concentration that inhibits the measured activity by half. What is called half-life is the time needed for the level to fall by half in the phase considered.

Data set [1] deals with Staphylococcus aureus. Description: Antibacterial activity against methicillin resistant Staphylococcus aureus ATCC 33592 incubated for 24 hrs by Mueller-Hinton broth based assay. The class given is functional.
The test system of data set [2] is Staphylococcus aureus. Description: Antibacterial activity against methicillin resistant Staphylococcus aureus MTCC 84 incubated for 24 hrs by serial dilution method. The format is functional.
Data set [3] has as its system Staphylococcus aureus. Description: Antibacterial activity against methicillin resistant Staphylococcus aureus USA300 assessed as inhibition of bacterial growth incubated for 16 to 20 hrs by CLSI protocol based Mueller-Hinton broth method. Particulars: time 16-20 hrs. The format is functional.
In data set [4] the test system is Staphylococcus aureus. Briefly: Antibacterial activity against methicillin resistant Staphylococcus aureus MW2 assessed as inhibition of bacterial growth incubated for 16 to 20 hrs by CLSI protocol based Mueller-Hinton broth method. The following applies: time 16-20 hrs. The class given is functional.
Data set [5] in a line: Cytotoxicity against human HepG2 cells assessed as inhibition of cell growth incubated for 24 hrs by WST-1 assay. The class given is toxicity, cell-based. Particulars: read-out: LD50.
The subject of data set [6] is Staphylococcus aureus. Briefly: Antimicrobial activity against methicillin resistant Staphylococcus aureus 2658 RCMB assessed as inhibition of bacterial growth incubated for 20 hrs by CLSI protocol based broth microdilution method. The class given is functional. A general note: Broth dilution looks for growth in wells or tubes with falling amounts of substance.
Data set [7] concerns Staphylococcus aureus. Description: Antimicrobial activity against methicillin resistant Staphylococcus aureus 3 assessed as inhibition of bacterial growth incubated for 16 to 20 hrs by CLSI protocol based Muller-Hinton broth method. The class given is functional. The following applies: time 16-20 hrs.
Data set [8] concerns Staphylococcus aureus. Briefly: Antimicrobial activity against methicillin resistant Staphylococcus aureus 2 assessed as inhibition of bacterial growth incubated for 16 to 20 hrs by CLSI protocol based Muller-Hinton broth method. The following applies: time 16-20 hrs. The format is functional.
The subject of data set [9] is Staphylococcus aureus. Description: Antimicrobial activity against methicillin resistant Staphylococcus aureus 1 assessed as inhibition of bacterial growth incubated for 16 to 20 hrs by CLSI protocol based Muller-Hinton broth method. The following applies: time 16-20 hrs. The format is functional.
Data set [10] can be described thus: Cytotoxicity against rat NRK-52E cells assessed as inhibition of cell growth incubated for 24 hrs by CCK-8 assay. The class given is toxicity, cell-based.
The test system of data set [11] is Staphylococcus aureus. Briefly: Antibacterial activity methicillin resistant Staphylococcus aureus NRS 484 (USA 1100) assessed as inhibition of bacterial growth by broth microdilution method. The class given is functional.
Data set [12] concerns Staphylococcus aureus. Briefly: Antibacterial activity methicillin resistant Staphylococcus aureus NRS 385 (USA 500) assessed as inhibition of bacterial growth by broth microdilution method. The class given is functional.
Data set [13] deals with Staphylococcus aureus. Description: Antibacterial activity methicillin resistant Staphylococcus aureus NRS 387 (USA 800) assessed as inhibition of bacterial growth by broth microdilution method. The class given is functional.
The test system of data set [14] is Staphylococcus aureus. Briefly: Antibacterial activity methicillin resistant Staphylococcus aureus NRS123 (USA 400) assessed as inhibition of bacterial growth by broth microdilution method. The format is functional.
Data set [15] deals with Staphylococcus aureus. Briefly: Antibacterial activity methicillin resistant Staphylococcus aureus 2658 RCMB assessed as inhibition of bacterial growth by broth microdilution method. The class given is functional.
Data set [16] deals with Staphylococcus aureus. Briefly: Antibiofilm activity against methicillin resistant Staphylococcus aureus assessed as reduction in biofilm formation at 2 times of MIC by microtiter plate biofilm formation assay. On the set-up: scale not given: the % may be the effect or the level left. The class given is functional.
Data set [17] deals with Staphylococcus aureus. Description: Antibacterial activity methicillin resistant Staphylococcus aureus NRS 382 (USA 100) assessed as inhibition of bacterial growth by broth microdilution method. The class given is functional.
Data set [18] deals with Staphylococcus aureus. Briefly: Antibacterial activity methicillin resistant Staphylococcus aureus NRS384 (USA 300) assessed as inhibition of bacterial growth by broth microdilution method. The class given is functional.
Data set [19] relates to Staphylococcus aureus. Briefly: Antibacterial activity methicillin resistant Staphylococcus aureus NRS 108 assessed as inhibition of bacterial growth by broth microdilution method. The class given is functional.
Data set [20] deals with Staphylococcus aureus. Description: Antibacterial activity methicillin resistant Staphylococcus aureus NRS 194 assessed as inhibition of bacterial growth by broth microdilution method. The class given is functional.
A short description of data set [21]: Half-life in rat at 25 mg/kg, po. The class given is ADME, organism-based. The following applies: in vivo.
In data set [22] the test system is Staphylococcus aureus. Briefly: Antibacterial activity methicillin resistant Staphylococcus aureus NRS 383 (USA 200) assessed as inhibition of bacterial growth by broth microdilution method. The class given is functional.
For data set [23], the system named is Staphylococcus aureus. Briefly: Antibacterial activity methicillin resistant Staphylococcus aureus NRS 483 (USA 1000) assessed as inhibition of bacterial growth by broth microdilution method. The class given is functional.
Data set [24] relates to Staphylococcus aureus. Description: Antibacterial activity methicillin resistant Staphylococcus aureus NRS 386 (USA 700) assessed as inhibition of bacterial growth by broth microdilution method. The format is functional.
Data set [25] concerns Staphylococcus aureus. Description: Antibacterial activity methicillin resistant Staphylococcus aureus NRS 119 assessed as inhibition of bacterial growth by broth microdilution method. Particulars: NRS119. The format is functional.
Data set [26] concerns Staphylococcus aureus. Briefly: Potency index, ratio of vancomycin MIC to test compound MIC for antibacterial activity against methicillin resistant Staphylococcus aureus ATCC 43866 assessed as inhibition of biofilm formation incubated for 18 to 24 hrs by tissue culture plate method. The class given is functional. Particulars: time 18-24 hrs.
Data set [27] relates to Staphylococcus aureus. Briefly: Antibiofilm activity against methicillin resistant Staphylococcus aureus ATCC 43866 assessed as inhibition of biofilm formation incubated for 18 to 24 hrs by tissue culture plate method. The format is functional. Particulars: time 18-24 hrs.
Data set [28] concerns Staphylococcus aureus. Briefly: Antibacterial activity against methicillin resistant Staphylococcus aureus incubated for 24 hrs by broth microdilution method. The class given is functional.
Data set [29] has as its system Staphylococcus aureus. Description: Antimicrobial activity against methicillin resistant Staphylococcus aureus ATCC 25923 assessed as inhibition of bacterial growth by agar diffusion cup plate method. The class given is functional. For orientation: Agar diffusion results depend on both activity and mobility in agar.
For data set [30], the system named is Staphylococcus aureus. Briefly: Potency index, ratio of chloramphenicol MIC to test compound MIC for antibacterial activity against methicillin resistant Staphylococcus aureus ATCC 43300 assessed as inhibition of bacterial growth incubated for 24 to 48 hrs by spectrophotometric analysis. The format is functional. Particulars: time 24-48 hrs.
The test system of data set [31] is Staphylococcus aureus. Description: Potency index, ratio of ciprofloxacin MIC to test compound MIC for antibacterial activity against methicillin resistant Staphylococcus aureus ATCC 43300 assessed as inhibition of bacterial growth incubated for 24 to 48 hrs by spectrophotometric analysis. The format is functional. Particulars: time 24-48 hrs.
In data set [32] the test system is Staphylococcus aureus. Briefly: Antibacterial activity against methicillin resistant Staphylococcus aureus ATCC 43300 assessed as inhibition of bacterial growth incubated for 24 to 48 hrs by spectrophotometric analysis. The class given is functional. Particulars: time 24-48 hrs.

As for `C[C@@H]1C[C@H](C)CN(S(=O)(=O)c2ccc(C(=O)Nc3nnc(-c4ccc(C(F)(F)F)cc4)o3)cc2)C1`, in the data set with Staphylococcus aureus [1], the MIC worked out at 0.25 µg/mL (≈ 0.492 µM).
Regarding `CN[C@@H]1[C@H](O[C@H]2[C@H](O[C@H]3[C@H](O)[C@@H](O)[C@H](N=C(N)N)[C@@H](O)[C@@H]3N=C(N)N)O[C@@H](C)[C@]2(O)C=O)O[C@@H](CO)[C@H](O)[C@H]1O` [STREPTOMYCIN], in the data set on Staphylococcus aureus [2], the MIC is more than 100 µg/mL.
For the molecule `O=C(Nc1nnc(-c2ccc3c(c2)CCCC3)o1)C1CC1`, the minimal bactericidal concentration (MBC) with Staphylococcus aureus [3] and in the data set with Staphylococcus aureus [4] was 16 µg/mL (≈ 56.5 µM) each time. Also, the CC50 at 24 h in data set [5] is more than 32 µg/mL.
On to `Cc1nc(-c2ccc3ccccc3c2)sc1-c1nnc(NC(=N)N2CCNCC2)o1`, for which the MIC with Staphylococcus aureus [6] worked out at 1.95 µg/mL (≈ 4.65 µM).
Regarding `CCn1cc(C(=O)O)c(=O)c2cc(F)c(N3CCN(Cc4nnc(-c5cccc(OC)c5)o4)CC3)cc21`, the MIC with Staphylococcus aureus [7] amounted to 1 µg/mL (≈ 1.97 µM); in the data set on Staphylococcus aureus [8], 0.25 µg/mL (≈ 0.493 µM); in the data set with Staphylococcus aureus [9] it was 0.5 µg/mL (≈ 0.985 µM). Further, the IC50 at 24 h in data set [10] is more than 200 µg/mL.
`Cc1nc(-c2ccc(C(C)(C)C)cc2)sc1-c1nnc(N2CC(O)C2)o1`: the MIC was 4 µg/mL (≈ 10.8 µM) with Staphylococcus aureus [11]; 4 µg/mL (≈ 10.8 µM) with Staphylococcus aureus [12]; 4 µg/mL (≈ 10.8 µM) with Staphylococcus aureus [13]; 4 µg/mL (≈ 10.8 µM) in the data set on Staphylococcus aureus [14]; 3.12 µg/mL (≈ 8.42 µM) with Staphylococcus aureus [15]; 4 µg/mL (≈ 10.8 µM) with Staphylococcus aureus [17]. The MIC in the data set with Staphylococcus aureus [18], with Staphylococcus aureus [19], with Staphylococcus aureus [20], in the data set with Staphylococcus aureus [22], with Staphylococcus aureus [23] and in the data set on Staphylococcus aureus [24] was 4 µg/mL (≈ 10.8 µM) in each case. Further, the MIC with Staphylococcus aureus [25] was found to be 4 µg/mL (≈ 10.8 µM). In addition, the Activity with Staphylococcus aureus [16] is 41%. In data set [21], this molecule showed a half-life of 5.5 h.
Consider `Cn1c(-c2nnc(-c3ccc(Cl)cc3Cl)o2)cc(Br)c1Br`, for which the Ratio in the data set with Staphylococcus aureus [26] is reported as 4. Further, in the data set with Staphylococcus aureus [27], the MIC worked out at 0.78 µg/mL (≈ 1.73 µM).
In turn, `Nc1scc(-c2ccc(F)cc2)c1-c1nnc(S)o1` had an MIC in the data set on Staphylococcus aureus [28] of 8 µg/mL (≈ 27.3 µM).
Take `COc1ccc(-c2nnc(C)o2)cc1`: the MIC in the data set with Staphylococcus aureus [29] came to 25 µg/mL (≈ 131 µM).
Regarding `O=C(/C=C/c1ccc(F)cc1)N1N=C(c2ccncc2)OC1c1cn(-c2ccccc2)nc1-c1ccc(F)cc1` (stereo unspecified), the Ratio in the data set on Staphylococcus aureus [30] amounted to 8; with Staphylococcus aureus [31] it was 4. The MIC in the data set on Staphylococcus aureus [32] is 6.25 µg/mL (≈ 11.7 µM).
For `O=C(/C=C/c1cccc([N+](=O)[O-])c1)N1N=C(c2ccncc2)OC1c1cn(-c2ccccc2)nc1-c1ccc(F)cc1` (stereo unspecified), the MIC with Staphylococcus aureus [32] was more than 50 µg/mL.
In the data set with Staphylococcus aureus [2], `Cc1ccc(OCc2nnco2)c(C(=O)c2cccc(Cl)c2)c1` returned an MIC of 62.5 µg/mL (≈ 190 µM).
In the case of `Cc1nc(-c2ccc3ccccc3c2)sc1-c1nnc(NC(=N)N)o1`, the MIC with Staphylococcus aureus [6] stood at 1.95 µg/mL (≈ 5.56 µM).
For `O=C(/C=C/c1cccc(F)c1)N1N=C(c2ccncc2)OC1c1cn(-c2ccccc2)nc1-c1ccc(F)cc1` (stereo unspecified), the MIC in the data set with Staphylococcus aureus [32] was 25 µg/mL (≈ 46.9 µM).
With `CCCCC(=O)Nc1nnc(-c2ccc(Cl)cc2)o1`, the figures for the MBC in the data set with Staphylococcus aureus [3] and with Staphylococcus aureus [4] were 8 µg/mL (≈ 28.6 µM) and 64 µg/mL (≈ 229 µM), respectively.
With `CCn1cc(C(=O)O)c(=O)c2cc(F)c(N3CCN(Cc4nnc(-c5ccc(OC)cc5)o4)CC3)cc21`, the results for the MIC with Staphylococcus aureus [7], with Staphylococcus aureus [8] and with Staphylococcus aureus [9] were 1 µg/mL (≈ 1.97 µM), 0.5 µg/mL (≈ 0.985 µM) and 1 µg/mL (≈ 1.97 µM), respectively.
For the molecule `CCn1cc(C(=O)O)c(=O)c2cc(F)c(N3CCN(Cc4nnc(-c5ccc(C#N)cc5)o4)CC3)cc21`, the MIC in the data set with Staphylococcus aureus [7] turned out to be 2 µg/mL (≈ 3.98 µM); in the data set with Staphylococcus aureus [8], 1 µg/mL (≈ 1.99 µM); in the data set with Staphylococcus aureus [9] it was 1 µg/mL (≈ 1.99 µM).
On to `O=C(N[C@H](CO)[C@H](O)c1ccc([N+](=O)[O-])cc1)C(Cl)Cl` [CHLORAMPHENICOL], for which, in the data set with Staphylococcus aureus [32], the MIC amounted to 50 µg/mL (≈ 155 µM).
`Cc1cc(C(=O)Nc2nnc(-c3ccc(C(F)(F)F)cc3)o2)ccc1S(=O)(=O)N1C[C@H](C)C[C@H](C)C1` returned an MIC against Staphylococcus aureus [1] of 11 µg/mL (≈ 21.1 µM).
